From patent US10813906B2, “Use of ferrous amino acid chelate to treat infection by enteropathogen and to enhance growth performance” (Profeat Biotechnology Co., Ltd., priority 2018, dated 2020)

Columns and labels:
[1] = system: Coccidia; test: Coccidia infestation in chickens, microscopic observation of feces; type: in vivo, Taiwan black-feather country chickens; conditions: Week 6
Description: The experimental chickens were randomly divided into a control group and an experimental group (n=40/group), and each group was placed in a pen with a size of 6.5 m^2. Water was provided ad libitum for all of the experimental chickens. […] The mixed feed supplied to the control group was made from a basal diet and a ferrous sulfate (20 g of Fe per 1000 kg of the mixed feed). The mixed feed supplied to the experimental group was made from the basal diet and the ferrous amino acid chelate prepared as described in the section, entitled “1. […] Moreover, during supply of the mixed feed, fifteen chickens were randomly chosen at a designated time point to collect the feces from the cloaca thereof using cotton swabs. Coccidia infestation is determined by microscopic observation of the obtained feces sample.

[2] = system: Salmonella spp.; test: Enteropathogen infection in chickens, real time PCR of feces: Salmonella spp.; type: in vivo, Taiwan black-feather country chickens; conditions: Week 10, feces from cloaca
Description: Taiwan black-feather country chickens (1 day of age) were purchased from Animal Research Farm in National Chia-Yi University (Taiwan), and were raised in a farm under the guidelines of Animal Care Committee of the Council of Agriculture, Taiwan. The experimental chickens were randomly divided into a control group and an experimental group (n=40/group), and each group was placed in a pen with a size of 6.5 m^2. Water was provided ad libitum for all of the experimental chickens.
Each of the experimental chickens was fed with a mixed feed for 12 weeks at a dose of 0.1 kg per day. The mixed feed supplied to the control group was made from a basal diet and a ferrous sulfate (20 g of Fe per 1000 kg of the mixed feed). The mixed feed supplied to the experimental group was made from the basal diet and the ferrous amino acid chelate prepared as described in the section, entitled “1. Preparation of ferrous amino acid chelate” of the “General Experimental Materials” (20 g of Fe per 1000 kg of the mixed feed).
Moreover, during supply of the mixed feed, fifteen chickens were randomly chosen at a designated time point to collect the feces from the cloaca thereof using cotton swabs.
In addition, the obtained feces were subjected to nucleic acid extraction with Taco™ DNA/RNA Extraction Kit (GeneReach Biotechnology Corp) according to the manufacturer's instructions. […]

[3] = system: Escherichia coli; test: Enteropathogen infection in chickens, real time PCR of feces: Escherichia coli; type: in vivo, Taiwan black-feather country chickens; conditions: Week 10, feces from cloaca
[4] = system: Clostridium perfringens; type: in vivo, Taiwan black-feather country chickens; conditions: Week 6; feces from cloaca, real time PCR
[5] = Growth performance of chickens fed mixed feed for 12 weeks; type: in vivo, Taiwan black-feather country chickens; conditions: for Body weight: mean ± S.D., 20 g of Fe per 1000 kg of mixed feed; for ADG (average daily gain) / FE (feed efficiency, ratio of total feed intake to total body weight): Week 12, 20 g of Fe per 1000 kg of mixed feed
Description: The experimental chickens were randomly divided into a control group and an experimental group (n=40/group), and each group was placed in a pen with a size of 6.5 m^2. Water was provided ad libitum for all of the experimental chickens. […] The mixed feed supplied to the control group was made from a basal diet and a ferrous sulfate (20 g of Fe per 1000 kg of the mixed feed). The mixed feed supplied to the experimental group was made from the basal diet and the ferrous amino acid chelate prepared as described in the section, entitled “1. […] The body weight of each chicken was determined before and after supply of the mixed feed. Subsequently, average daily gain (ADG) of the chickens in each group was calculated based on the body weight and the feed intake. Feed efficiency (FE) defined as a ratio of total feed intake to total body weight was also calculated. The experimental data were analyzed via Student's t-test so as to assess the difference between the test groups. Statistical significance is indicated by p<0.05.

[6] = Growth performance of postweaning piglets fed mixed feed for 8 weeks; type: in vivo; conditions: for ADFI (average daily feed intake) / ADG (average daily gain) / FE (feed efficiency, ratio of ADFI to ADG) / Total feed intake: age 4 to 12 weeks; for Body weight: mean ± S.D.; for Total feed intake: whole group
Description: About 1000 male piglets and 1000 female piglets (purchased from HAIFUNG ranch, Yunlin County, Taiwan and bred in the nursery) were used in the following experiment. The experimental piglets were randomly divided into an experimental group and a control group, and sufficient water and feed were supplied to the experimental piglets. […] The mixed feed supplied to the experimental group was made from the basal diet and the ferrous amino acid chelate prepared as described in the section, entitled “1. […] Subsequently, average daily gain (ADG) and average daily feed intake (ADFI) of the postweaning piglets in each group were calculated based on the body weight and the total feed intake. Feed efficiency (FE) defined as a ratio of ADFI to ADG was also calculated. The experimental data were expressed as mean±S.D., and were analyzed via Student's t-test so as to assess the difference between the test groups. Statistical significance is indicated by p<0.05.

[7] = Week 0 (before supply of the mixed feed)
[8] = age 4 weeks (at weaning, start of the mixed feed)
[9] = age 12 weeks, after 8 weeks of mixed feed (basal diet:iron source 1000:1)

ferrous glycinate chelate [ferrous amino acid chelate]
Enteropathogen infection, Coccidia (percentage of infection among 15 selected chickens) [1]: 33% | Enteropathogen infection, Salmonella spp. (percentage of infection among 15 selected chickens) [2]: 53% | Enteropathogen infection, Escherichia coli (percentage of infection among 15 selected chickens) [3]: 27% | Enteropathogen infection, Clostridium perfringens (percentage of infection among 15 selected chickens) [4]: 0% | Body weight [5, 7]: 32.48 ± 3.49 g | ADG (average daily gain) [5]: 25.44 g/day per chicken | FE (feed efficiency, ratio of total feed intake to total body weight) [5]: 3.59 | Body weight ([5]; Week 12 of mixed feed): 2143.71 ± 250.23 g | ADFI (average daily feed intake) [6]: 0.78 kg/day per piglet | ADG (average daily gain) [6]: 0.40 kg/day per piglet | FE (feed efficiency, ratio of ADFI to ADG) [6]: 1.93 | Body weight [6, 8]: 9.08 ± 0.94 kg | Body weight [6, 9]: 32.84 ± 4.01 kg | Total feed intake [6]: 36,500 kg

ferrous sulfate
Enteropathogen infection, Coccidia (percentage of infection among 15 selected chickens) [1]: 100% | Enteropathogen infection, Salmonella spp. (percentage of infection among 15 selected chickens) [2]: 93% | Enteropathogen infection, Escherichia coli (percentage of infection among 15 selected chickens) [3]: 93% | Enteropathogen infection, Clostridium perfringens (percentage of infection among 15 selected chickens) [4]: 33% | Body weight [5, 7]: 31.06 ± 2.94 g | ADG (average daily gain) [5]: 23.3 g/day per chicken | FE (feed efficiency, ratio of total feed intake to total body weight) [5]: 3.88 | Body weight ([5]; Week 12 of mixed feed): 1965 ± 194.44 g | ADFI (average daily feed intake) [6]: 0.85 kg/day per piglet | ADG (average daily gain) [6]: 0.30 kg/day per piglet | FE (feed efficiency, ratio of ADFI to ADG) [6]: 2.80 | Body weight [6, 8]: 8.40 ± 1.17 kg | Body weight [6, 9]: 28.00 ± 4.28 kg | Total feed intake [6]: 33,255 kg
